A word on the IC50: it is the concentration that gives 50% inhibition.

The target in this test is human RAF1 (Homo sapiens, UniProt P04049). The experiment in a line: Protein kinase assay (33P-ATP filter binding), human RAF1, 10-dose IC50. The conditions noted are these: MEK1 (K97R) substrate 3 micromolar, ATP 10 micromolar, read-out: RAF-1 IC50. Type of test: biochemical. As to the method: In brief, for each reaction, kinase and substrate were mixed in a buffer containing 20 mM HEPES (pH 7.5), 10 mM MgCl2, 1 mM EGTA, 0.02% Brij35, 0.02 mg/mL BSA, 0.1 mM Na3VO4, 2 mM DTT, and […]. All compounds were solubilized in DMSO. Compounds were then added to each reaction mixture via acoustic dispense using an ECHO 550 nanoliter dispenser. For human RAF1 testing, human MEK1 (K97R) was used as a substrate at a concentration of 3 micromolar, with a final ATP concentration of 10 micromolar. […] Reactions were carried out at room temperature for 2 hr and spotted onto P81 ion exchange cellulose chromatography paper (Reaction Biology). […] The percent remaining kinase activity relative to a vehicle-containing (DMSO) kinase reaction was calculated for each kinase/inhibitor pair. IC50 values were calculated using Prism 5 (GraphPad).
human RAF1, sequence (P04049 whole entry): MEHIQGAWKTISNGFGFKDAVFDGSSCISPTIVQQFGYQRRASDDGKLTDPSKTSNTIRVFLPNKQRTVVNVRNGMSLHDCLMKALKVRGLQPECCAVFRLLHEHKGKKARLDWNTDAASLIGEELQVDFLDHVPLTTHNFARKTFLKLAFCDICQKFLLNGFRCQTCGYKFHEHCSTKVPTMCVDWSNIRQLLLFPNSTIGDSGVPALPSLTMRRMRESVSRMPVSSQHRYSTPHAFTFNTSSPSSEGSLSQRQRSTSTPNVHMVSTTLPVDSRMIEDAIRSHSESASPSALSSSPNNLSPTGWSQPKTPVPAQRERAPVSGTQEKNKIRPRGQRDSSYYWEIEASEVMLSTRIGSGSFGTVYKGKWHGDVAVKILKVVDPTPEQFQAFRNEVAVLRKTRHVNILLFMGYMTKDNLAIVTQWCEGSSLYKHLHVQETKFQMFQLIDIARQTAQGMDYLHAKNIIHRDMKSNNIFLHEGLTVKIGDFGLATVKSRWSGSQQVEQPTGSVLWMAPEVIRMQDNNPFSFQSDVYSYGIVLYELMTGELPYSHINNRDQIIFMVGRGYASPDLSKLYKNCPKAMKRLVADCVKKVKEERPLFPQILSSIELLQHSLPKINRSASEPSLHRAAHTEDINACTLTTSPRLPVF

Take `Cc1cc(F)c(NC(=O)N2C[C@H](CF)[C@@H](C(F)(F)F)C2)cc1-c1cc(OCCO)nc(N2CCOCC2)c1` (relative stereo) [Example 39, (trans)-N-[2-fluoro-5-[2-(2-hydroxyethoxy)-6-(morpholin-4-yl)pyridin-4-yl]-4-methylphenyl]-3-(fluoromethyl)-4-(trifluoromethyl) pyrrolidine-1-carboxamide]: the IC50 was less than 10 nM.
On to `Cc1ccc(NC(=O)N2CC[C@@H](C(F)(F)F)C2)cc1-c1cnc(OCCO)c(N2CCOCC2)c1` (single isomer, unassigned) [Example 14], for which the IC50 is less than 10 nM.
For the compound `Cc1ccc(NC(=O)N2CC[C@H](C(F)(F)F)C2)cc1-c1cnc(OCCO)c(N2CCOCC2)c1` (single isomer, unassigned) [Example 15], the concentration for half-maximal inhibition (IC50) was less than 10 nM.
On to `Cc1ncc(NC(=O)N2CC[C@@H](C(F)(F)F)C2)cc1-c1cnc(OCCO)c(N2CCOCC2)c1` (single isomer, unassigned) [Example 16], for which the IC50 was less than 10 nM.
Turning to `Cc1ncc(NC(=O)N2CC[C@H](C(F)(F)F)C2)cc1-c1cnc(OCCO)c(N2CCOCC2)c1` (single isomer, unassigned) [Example 17], the IC50 was less than 10 nM.
`Cc1cc(F)c(NC(=O)N2CC[C@@H](C(F)(F)F)C2)cc1-c1cc(OCCO)nc(N2CCOC[C@H]2C)c1` (single isomer, unassigned) [Example 29]: the IC50 is less than 10 nM.
As to `Cc1cc(F)c(NC(=O)N2CC[C@H](C(F)(F)F)C2)cc1-c1cc(OCCO)nc(N2CCOC[C@H]2C)c1` (single isomer, unassigned) [Example 30], the IC50 was less than 10 nM.
Regarding `Cc1cc(F)c(NC(=O)N2CC[C@@H](C(F)(F)F)C2)cc1-c1cnc(OC2CCOCC2)c(N2CCOCC2)c1` (single isomer, unassigned) [Example 31], the half-maximal inhibitory concentration (IC50) was less than 10 nM.
For `Cc1cc(F)c(NC(=O)N2CC[C@H](C(F)(F)F)C2)cc1-c1cnc(OC2CCOCC2)c(N2CCOCC2)c1` (single isomer, unassigned) [Example 32] the value was less than 10 nM.
In the case of `Cc1cc(F)c(NC(=O)N2CC[C@H](C(C)(F)F)C2)cc1-c1cc(OCCO)nc(N2CCOCC2)c1` (single isomer, unassigned) [Example 33], the 50% inhibitory concentration (IC50) is less than 10 nM.
Consider `Cc1cc(F)c(NC(=O)N2CC[C@@H](C(C)(F)F)C2)cc1-c1cc(OCCO)nc(N2CCOCC2)c1` (single isomer, unassigned) [Example 34], for which the IC50 was less than 10 nM.
For `Cc1cc(F)c(NC(=O)N2CC[C@H](C3CC3)C2)cc1-c1cc(OCCO)nc(N2CCOCC2)c1` (single isomer, unassigned) [Example 47], the IC50 was less than 10 nM.
For the compound `Cc1cc(F)c(NC(=O)N2CC[C@@H](C3CC3)C2)cc1-c1cc(OCCO)nc(N2CCOCC2)c1` (single isomer, unassigned) [Example 48], the IC50 was less than 10 nM.
With `Cc1cc(F)c(NC(=O)N2C[C@@H]3C[C@]3(C(F)(F)F)C2)cc1-c1cc(OCCO)nc(N2CCOCC2)c1` (single isomer, unassigned) [Example 50], the IC50 was less than 10 nM.
Regarding `Cc1cc(F)c(NC(=O)N2C[C@H]3C[C@@]3(C(F)(F)F)C2)cc1-c1cc(OCCO)nc(N2CCOCC2)c1` (single isomer, unassigned) [Example 51], the IC50 is less than 10 nM.
Consider `Cc1cc(F)c(NC(=O)N2CC(C)C(C(F)(F)F)C2)cc1-c1cc(OCCO)nc(N2CCOCC2)c1` (single isomer, unassigned) [Example 52, N-[2-fluoro-5-[2-(2-hydroxyethoxy)-6-(morpholin-4-yl)pyridin-4-yl]-4-methylphenyl]-3-methyl-4-(trifluoromethyl)pyrrolidine-1-carboxamide], for which the IC50 was less than 10 nM.
As to `Cc1cc(F)c(NC(=O)N2CC(C)C(C(F)(F)F)C2)cc1-c1cc(OCCO)nc(N2CCOCC2)c1` (single isomer, unassigned) [Example 53, N-[2-fluoro-5-[2-(2-hydroxyethoxy)-6-(morpholin-4-yl)pyridin-4-yl]-4-methylphenyl]-3-methyl-4-(trifluoromethyl)pyrrolidine-1-carboxamide], the IC50 is less than 10 nM.
For `Cc1cc(F)c(NC(=O)N2CCO[C@@H](C(C)(F)F)C2)cc1-c1cc(OCCO)nc(N2CCOCC2)c1` (single isomer, unassigned) [Example 58], the 50% inhibitory concentration (IC50) was less than 10 nM.
Take `Cc1cc(F)c(NC(=O)N2CCO[C@@H](C(C)(F)F)C2)cc1-c1cc(OCCO)nc(N2CCOCC2)c1` (single isomer, unassigned) [Example 59]: the IC50 is less than 10 nM.
Consider `Cc1cc(F)c(NC(=O)N2C[C@H](C(F)(F)F)C[C@@H]2C)cc1-c1cc(OCCO)nc(N2CCOCC2)c1` (single isomer, unassigned) [Example 60, (cis)-N-[2-fluoro-5-[2-(2-hydroxyethoxy)-6-(morpholin-4-yl)pyridin-4-yl]-4-methylphenyl]-2-methyl-4-(trifluoromethyl)pyrrolidine-1-carboxamide], for which the IC50 is less than 10 nM.
`Cc1cc(F)c(NC(=O)N2C[C@H](C(F)(F)F)C[C@@H]2C)cc1-c1cc(OCCO)nc(N2CCOCC2)c1` (single isomer, unassigned) [Example 61, (cis)-N-[2-fluoro-5-[2-(2-hydroxyethoxy)-6-(morpholin-4-yl)pyridin-4-yl]-4-methylphenyl]-2-methyl-4-(trifluoromethyl)pyrrolidine-1-carboxamide]: the IC50 was less than 10 nM.
For `Cc1cc(F)c(NC(=O)N2CC[C@]3(C2)CC3(F)F)cc1-c1cc(OCCO)nc(N2CCOCC2)c1` (single isomer, unassigned) [Example 62] the value was less than 10 nM.
`Cc1cc(F)c(NC(=O)N2CC[C@@]3(C2)CC3(F)F)cc1-c1cc(OCCO)nc(N2CCOCC2)c1` (single isomer, unassigned) [Example 63]: the concentration for half-maximal inhibition (IC50) is less than 10 nM.
Turning to `Cc1cc(F)c(NC(=O)N2CCC(C(F)(F)F)C2C)cc1-c1cc(OCCO)nc(N2CCOCC2)c1` (single isomer, unassigned) [Example 64, N-[2-fluoro-5-[2-(2-hydroxyethoxy)-6-(morpholin-4-yl)pyridin-4-yl]-4-methylphenyl]-2-methyl-3-(trifluoromethyl)pyrrolidine-1-carboxamide], the IC50 is 100 to 1000 nM.
Regarding `Cc1cc(F)c(NC(=O)N2CCC(C(F)(F)F)C2C)cc1-c1cc(OCCO)nc(N2CCOCC2)c1` (single isomer, unassigned) [Example 65, N-[2-fluoro-5-[2-(2-hydroxyethoxy)-6-(morpholin-4-yl)pyridin-4-yl]-4-methylphenyl]-2-methyl-3-(trifluoromethyl)pyrrolidine-1-carboxamide], the IC50 lay in the range of 10 to 100 nM.
For `Cc1cc(F)c(NC(=O)N2CCC(C(F)(F)F)C2C)cc1-c1cc(OCCO)nc(N2CCOCC2)c1` (single isomer, unassigned) [Example 66, N-[2-fluoro-5-[2-(2-hydroxyethoxy)-6-(morpholin-4-yl)pyridin-4-yl]-4-methylphenyl]-2-methyl-3-(trifluoromethyl)pyrrolidine-1-carboxamide] the value was less than 10 nM; for `Cc1cc(F)c(NC(=O)N2CCC(C(F)(F)F)C2C)cc1-c1cc(OCCO)nc(N2CCOCC2)c1` (single isomer, unassigned) [Example 67, N-[2-fluoro-5-[2-(2-hydroxyethoxy)-6-(morpholin-4-yl)pyridin-4-yl]-4-methylphenyl]-2-methyl-3-(trifluoromethyl)pyrrolidine-1-carboxamide], less than 10 nM.
For `Cc1cc(F)c(NC(=O)N2CCC3C2C3C(F)(F)F)cc1-c1cc(OCCO)nc(N2CCOCC2)c1` (single isomer, unassigned) [Example 68, N-[2-fluoro-5-[2-(2-hydroxyethoxy)-6-(morpholin-4-yl)pyridin-4-yl]-4-methylphenyl]-6-(trifluoromethyl)-2-azabicyclo[3.1.0]hexane-2-carboxamide] the value was less than 10 nM; for `Cc1cc(F)c(NC(=O)N2CCC3C2C3C(F)(F)F)cc1-c1cc(OCCO)nc(N2CCOCC2)c1` (single isomer, unassigned) [Example 69, N-[2-fluoro-5-[2-(2-hydroxyethoxy)-6-(morpholin-4-yl)pyridin-4-yl]-4-methylphenyl]-6-(trifluoromethyl)-2-azabicyclo[3.1.0]hexane-2-carboxamide], less than 10 nM; for `Cc1cc(F)c(NC(=O)N2CCC3C2C3C(F)(F)F)cc1-c1cc(OCCO)nc(N2CCOCC2)c1` (single isomer, unassigned) [Example 70, N-[2-fluoro-5-[2-(2-hydroxyethoxy)-6-(morpholin-4-yl)pyridin-4-yl]-4-methylphenyl]-6-(trifluoromethyl)-2-azabicyclo[3.1.0]hexane-2-carboxamide], 10 to 100 nM.
For `Cc1cc(F)c(NC(=O)N2CCC3C2C3C(F)(F)F)cc1-c1cc(OCCO)nc(N2CCOCC2)c1` (single isomer, unassigned) [Example 71, N-[2-fluoro-5-[2-(2-hydroxyethoxy)-6-(morpholin-4-yl)pyridin-4-yl]-4-methylphenyl]-6-(trifluoromethyl)-2-azabicyclo[3.1.0]hexane-2-carboxamide] the value was 100 to 1000 nM; for `Cc1cc(F)c(NC(=O)N2CC[C@H](CC(F)(F)F)C2)cc1-c1cc(OCCO)nc(N2CCOCC2)c1` (single isomer, unassigned) [Example 74], less than 10 nM; for `Cc1cc(F)c(NC(=O)N2CC[C@@H](CC(F)(F)F)C2)cc1-c1cc(OCCO)nc(N2CCOCC2)c1` (single isomer, unassigned) [Example 75], less than 10 nM.
Regarding `Cc1cc(F)c(NC(=O)N2CC[C@@H](OC(F)(F)F)C2)cc1-c1cc(OCCO)nc(N2CCOCC2)c1` (single isomer, unassigned) [Example 77], the IC50 was less than 10 nM.
